PubChem BioAssay (NCI)
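1) Cells in 96-well plates. 2) Compound, 48 h, 5 concentrations. 3) Linear interpolation between surrounding doses. 4) Unreached endpoint = highest concentration. Abbreviation: GI50, concentration required for 50% inhibition of growth. TGI denotes the concentration required for complete inhibition of growth.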

Experiments:
Test in all cases: NCI tumour cell line growth inhibition, 48 h
A549 NSCLC = system: A549 NSCLC
HCT-116 colon = system: HCT-116 colon
HS 578T breast = system: HS 578T breast
HT29 colon = system: HT29 colon
MDA-MB-231 breast = system: MDA-MB-231 breast
NCI-H522 lung = system: NCI-H522 lung
OVCAR-5 ovarian = system: OVCAR-5 ovarian
RPMI-8226 leukemia = system: RPMI-8226 leukemia
SK-MEL-2 melanoma = system: SK-MEL-2 melanoma
T-47D breast = system: T-47D breast

SMILES | TGI (A549 NSCLC) | TGI (HCT-116 colon) | TGI (HS 578T breast) | TGI (HT29 colon) | TGI (MDA-MB-231 breast) | TGI (NCI-H522 lung) | TGI (OVCAR-5 ovarian) | TGI (RPMI-8226 leukemia) | TGI (SK-MEL-2 melanoma) | TGI (T-47D breast) | GI50 (A549 NSCLC) | GI50 (HCT-116 colon) | GI50 (HS 578T breast) | GI50 (HT29 colon) | GI50 (MDA-MB-231 breast) | GI50 (NCI-H522 lung) | GI50 (OVCAR-5 ovarian) | GI50 (RPMI-8226 leukemia) | GI50 (SK-MEL-2 melanoma) | GI50 (T-47D breast)
C[N+]1(CCC(=O)c2ccccc2)CCC2CCC(C2)C1 (stereo not given) | > 100 µM | > 100 µM | > 100 µM | > 100 µM | > 100 µM | > 100 µM | > 100 µM | > 100 µM | > 100 µM | > 100 µM | – | – | – | – | – | – | – | – | – | –
CCOC(=O)c1c(-c2cccc(Cl)c2)c(C(=O)OC)c(C)c2sc(C=O)nc12 | > 100 µM | 21.1 µM | 50.5 µM | 49.5 µM | 34.6 µM | 32.5 µM | 35.7 µM | 46.4 µM | 37.1 µM | 45.6 µM | – | – | – | – | – | – | – | – | – | –
O=C(Nc1ccc(-n2ccc3c(NC(=O)c4ccccc4)nccc32)cc1)Nc1cccc(C(F)(F)F)c1 | 10.9 µM | 10.1 µM | 40 µM | 4.93 µM | 18.1 µM | 15.3 µM | 22.2 µM | 4.81 µM | 30.3 µM | 31 µM | 3.25 µM | 2.91 µM | 6.39 µM | 1.85 µM | 4.65 µM | 1.69 µM | 8.72 µM | 1.64 µM | 15 µM | 11.1 µM
O=C(/C=C1\N=C(c2ccccc2)N(c2nc3c(Cl)cc(Cl)cc3s2)C1=O)/C=C/c1ccccc1 | > 100 µM | > 100 µM | > 100 µM | > 100 µM | > 100 µM | > 100 µM | > 100 µM | > 100 µM | > 100 µM | > 100 µM | – | – | – | – | – | – | – | – | – | –
N#Cc1ccccc1C#C/C=C\C#Cc1ccccc1N | > 100 µM | – | > 25.5 µM | > 100 µM | 8.37 µM | – | > 62.6 µM | > 93 µM | 8.2 µM | > 100 µM | 6.95 µM | – | 5.29 µM | 4.38 µM | 2.13 µM | 2.94 µM | 5 µM | 2.28 µM | 1.17 µM | 8.72 µM
CC1=C[C@@H](C)C[C@]2(C)CC[C@H](O2)[C@]23CC[C@](CO)(C[C@H](O2)[C@@H]2O[C@@](C)(CC2=O)[C@@H](O)[C@H]2CC[C@@]4(CCC[C@@H](O4)[C@H](C)C(=O)O[C@H]4C[C@H]([C@]5(O)OCC[C@H](C)[C@@H]5O)O[C@H]4C=C1)O2)O3 | > 10 µM | > 10 µM | 0.00776 µM | > 10 µM | 0.217 µM | > 2.1 µM | > 10 µM | > 10 µM | > 2.45 µM | > 10 µM | – | – | – | – | – | – | – | – | – | –
CN(C)C(=O)OC1=CC2CCC(C1)N2C (stereo not given) | > 100 µM | > 100 µM | > 100 µM | > 100 µM | > 100 µM | > 100 µM | > 100 µM | > 100 µM | > 100 µM | > 100 µM | – | – | – | – | – | – | – | – | – | –
CC(=O)Nc1ccc(C(=O)NN2C(=O)C(Cl)C2c2cccc([N+](=O)[O-])c2)cc1 (stereo not given) | > 100 µM | > 100 µM | – | > 100 µM | – | > 100 µM | > 100 µM | > 100 µM | > 100 µM | – | – | – | – | – | – | – | – | – | – | –
CS(C)(=O)=Nn1c(=O)n2n(c1=O)C1c3ccccc3C2c2ccccc21 | > 100 µM | – | – | > 100 µM | > 100 µM | > 100 µM | > 100 µM | > 100 µM | > 100 µM | > 100 µM | – | – | – | – | – | – | – | – | – | –
COc1ccc(-c2nn(-c3ccc(NC(=O)c4cc(Cl)cc(Cl)c4)cc3)cc2-c2ccncc2)cc1Cl | > 100 µM | > 100 µM | – | > 100 µM | 4.85 µM | > 100 µM | – | 3.26 µM | > 100 µM | > 100 µM | > 100 µM | 7 µM | – | 2.26 µM | 1.39 µM | 5.11 µM | – | 0.494 µM | 2.79 µM | > 100 µM
COC(=O)c1cc(NC(=O)c2cc(NC(=O)Cc3c[nH]c4ccccc34)cn2C)cn1C | > 100 µM | 84.1 µM | – | 55.8 µM | 77.1 µM | – | > 100 µM | 48.4 µM | 68.1 µM | > 100 µM | – | – | – | – | – | – | – | – | – | –
Cc1ccc2nc(-c3ccc(NC(=O)c4ccc(N)cc4)c(S(=O)(=O)O)c3)sc2c1 | > 100 µM | > 100 µM | > 100 µM | > 100 µM | > 100 µM | > 100 µM | > 100 µM | > 100 µM | – | > 100 µM | – | – | – | – | – | – | – | – | – | –
COc1cccc(/C=N/[N-]C(N)=O)c1[O-].[Ni+2].[OH3+] | 2.27 µM | 0.27 µM | – | 2.07 µM | – | 0.25 µM | 2.55 µM | 4.13 µM | 1.46 µM | – | – | – | – | – | – | – | – | – | – | –
Cc1oc(N)c(S(=O)(=O)c2cc3ccccc3n(O)c2=N)c1C | > 100 µM | – | > 100 µM | > 100 µM | > 100 µM | > 100 µM | > 100 µM | > 100 µM | > 100 µM | > 100 µM | – | – | – | – | – | – | – | – | – | –
CCOCC(=O)N(C)c1cccc2c3c(n(C)c12)CCCCC3 | > 100 µM | > 100 µM | – | > 100 µM | – | > 100 µM | > 100 µM | – | > 100 µM | – | – | – | – | – | – | – | – | – | – | –
Cn1c2[n+](c3nc(N)[nH]c(=O)c31)C1OC(C2)C(O)C1O (stereo not given) | > 100 µM | > 100 µM | – | > 100 µM | – | > 100 µM | > 100 µM | – | > 100 µM | – | – | – | – | – | – | – | – | – | – | –
COc1cc(C2c3cc4c(cc3[C@@H](Nc3ccc(Oc5ccccc5)cc3)C3COC(=O)[C@H]23)OCO4)cc(OC)c1O (stereo not given in full) | > 39.5 µM | > 100 µM | – | > 100 µM | – | > 78.9 µM | > 100 µM | 5.86 µM | > 100 µM | – | – | – | – | – | – | – | – | – | – | –
O=C(CC(c1ccccc1)C1C(=O)NC(=S)NC1=O)c1ccc([N+](=O)[O-])cc1 (stereo not given) | > 100 µM | > 100 µM | > 100 µM | > 100 µM | > 100 µM | > 100 µM | > 100 µM | > 100 µM | > 100 µM | > 100 µM | – | – | – | – | – | – | – | – | – | –
